The source of these data is publication PMC12368482, “Antiprotozoal Activity of Highly Substituted Pyrazole and Pyrimidine Derivatives” (Chemmedchem, 2025).

In data set [1] the test system is P. falciparum chloroquine (CQ)‐resistant strain. Also noted: method as in PMID 17949068. The note with it: ref [15]; read-out: IC50 against P. falciparum CQ‐resistant strain; cited from earlier work.
The subject of data set [2] is Leishmania donovani. Also noted: method as in PMID 17949068. The note with it: ref [15]; read-out: IC50 against Leishmania donovani; cited from earlier work.
For data set [3], the system named is normal myoblast L6 cells. Also noted: method as in PMID 17949068. Conditions: ref [15]; cited from earlier work.
Data set [4] concerns P. falciparum D10. Kind of data set: Antiplasmodial susceptibility assay (pLDH), CQ-sensitive D10 strain. It counts as cell-based. The note with it: Plasmodium falciparum; CQ-sensitive strain D10; 72 h; pLDH readout; mean of three independent experiments in duplicate; NA = not active; read-out: IC50 P. falciparum D10. On the procedure:
(§1) Continuous in vitro Plasmodium falciparum cultures were carried out according to Trager and Jensen with slight modifications.^[ [38] ^] The CQ‐susceptible strain D10 and the CQ‐resistant strain W2 were maintained at 5% hematocrit (human type A‐positive red blood cells) in RPMI 1640 (EuroClone, Celbio) medium with the addition of 1% AlbuMax (Invitrogen, Milan, Italy), 0.01% hypoxanthine, 20 mM HEPES (at pH 7.4), and 2 mM glutamine. All the cultures were maintained at 37 °C in a low‐oxygen atmosphere consisting of 1% O2, 5% CO2, and 94% N2. Compounds were dissolved in DMSO to a stock concentration of 10 mg/ml and then diluted with complete medium to achieve the desired concentrations (final DMSO concentration <1%, which is nontoxic to the parasite). Derivatives were placed in 96‐well flat‐bottomed microplates in duplicate, and seven 1:2 serial dilutions were made directly in the plate in a volume of 100 μL. Asynchronous cultures with parasitemia of 1%–1.5% (assessed through Giemsa stained blood smears) and 1% final hematocrit were aliquoted into the plates and incubated for 72 h at 37 °C in a final volume of 200 μL/well. Uninfected erythrocytes at 2% hematocrit were used as blank. The antimalarial CQ was tested against the parasite strains as a positive control of inhibition. Parasite growth was determined spectrophotometrically (OD650) by measuring the activity of the parasite lactate dehydrogenase (pLDH), according to a modified version of the method of Makler in control and drug‐treated cultures.^[ [39] ^] The antimalarial activity was expressed as 50% inhibitory concentrations (IC50). The IC50 values were extrapolated from nonlinear regression analysis of the concentration–response curve, using the software Gen5 1.10 provided with the Synergy 4 (BioTek) reader. Each IC50 value was the mean of three independent experiments run in duplicates.

For data set [5], the system named is P. falciparum W2. Kind of data set: Antiplasmodial susceptibility assay (pLDH), CQ-resistant W2 strain. The data set is classed as cell-based. The note with it: Plasmodium falciparum; CQ-resistant strain W2; 72 h; pLDH readout; mean of three independent experiments in duplicate; NA = not active; read-out: IC50 P. falciparum W2. The method, then: as §1
Data set [6] concerns L. infantum promastigotes. Kind of data set: Antileishmanial evaluation (MTT), promastigotes. It counts as cell-based. The note with it: Leishmania infantum, 72 h, NA = not active. The method, then: (§2) The promastigote stage of L. infantum strain MHOM/TN/80/IPT1 (kindly provided by Dr M. Gramiccia, ISS, Roma) and L. tropica strain (MHOM/IT/2012/ISS3130) were cultured in RPMI 1640 medium (EuroClone) supplemented with 10% heat‐inactivated fetal calf serum (EuroClone), 20 mM Hepes, and 2 mM L‐glutamine at 24 °C. To determine the 50% inhibitory concentration (IC50), the MTT method was used.^[ [40], [41] ^] Compounds were dissolved in DMSO and then diluted with medium to achieve the required concentrations. Drugs were placed in 96 wells round‐bottom microplates and seven serial dilutions made. Amphotericin B was used as reference antiLeishmania drug. Parasites were diluted in complete medium to 5 × 10^6 parasites mL^−1 and 100 μL of the suspension was added to each well. The plates were incubated at 24 °C for 72 h, after the incubation 20 μL of MTT solution (5 mg mL^−1) was added to each well and incubated for additional 3 h. The plates were then centrifuged at 1000 × g for 8 min at room temperature and the supernatants were discarded. The resulting pellets were dissolved in 100 μL of lysing buffer consisting of 20% w/v of a solution of SDS (Sigma), 40% of DMF (Merck) in H2O. The absorbance was measured spectrophotometrically at a test wavelength of 550 nm and a reference wavelength of 650 nm. The results were expressed as IC50 which was the concentration of compound necessary to inhibit parasite growth by 50%; each IC50 value was the mean of separate experiments performed in duplicate.

For data set [7], the system named is L. tropica promastigotes. In words: Antileishmanial evaluation (MTT), promastigotes. It counts as cell-based. Conditions: Leishmania tropica, 72 h, NA = not active. On the procedure:
as §2

Data set [8] can be described thus: MTT cytotoxicity assay on fibroblasts. It counts as cell-based. Conditions: human, GM-6114 embryonic human fibroblasts, compounds tested at 10 μM for 48 h, percentage of control, read-out: Cell viability GM‐6114. The method, then: MTT assays: MTT assays were performed using GM‐6114 (embryonic human fibroblast, ATCC, Manassas, VA). The cells were grown in DMEM with 10% FBS, 2 mM glutamine, and 1% penstrep and incubated at 37 °C in 5% CO2 in a humidified environment. All reagents were purchased from EuroClone (Milan, Italy). Briefly, the cell line was plated in 96 well plates at an adequate number to reach 80%–90% of confluence at the end of the assay. 16 h after cell plating, compounds were dissolved in DMSO to give a 10 mM stock solution, diluted in growth medium, and added at a final working concentration of 10 μM. After 48 h of incubation, 30 μL of 3‐(4,5‐dimethyl‐2‐thiazolyl)‐2,5‐diphenyl‐2H‐tetrazolium bromide (MTT) at a concentration of 2 mg mL^−1 in PBS were added in each well. Then, after further 4 h of incubation, the supernatant was removed, and 100 μL/well of DMSO were used to dissolve the formazan precipitate that could be found in vital cells. After 20 min, the results were read at 570 nm by means of a plate reader. The results were expressed as percentage of the control samples in which the cells were incubated with the same amount of DMSO but without compounds. The assays were repeated three times. In each set, every single compound was tested six times. Variation among duplicates was less than 10%.

In the case of `O=[N+]([O-])c1ccc(-n2nc(-c3ccc(Oc4ccccc4)cc3)cc2N2CCOCC2)cc1` [II], the figures for the IC50 in data set [1] and in data set [2] were 3.7 µM and 4.8 µM, respectively. The “cytotoxicity against normal myoblast L6 cells” value in data set [3] is reported as “not cytotoxic”.

In the case of `CCCCN(CCCC)CCNc1[nH]nc(-c2ccccc2)c1C#N` [14d, 5‐((2‐(dibutylamino)ethyl)amino)‐3‐phenyl‐1H‐pyrazole‐4‐carbonitrile], the IC50 was found to be 9.52 µM in data set [4], 9 µM in data set [5], 7.92 µM in data set [6] and 11.6 µM in data set [7]. Further, the viability at 48 h, 10 μM in data set [8] is 71%.

Consider `CC(C)(C)c1n[nH]c(N2CCC(c3ccccc3)CC2)c1C#N` [13c, 3‐(tert‐butyl)‐5‐(4‐phenylpiperidin‐1‐yl)‐1H‐pyrazole‐4‐carbonitrile], for which the IC50 in data set [4] is 14.9 µM; in data set [5] it was 11.1 µM; in data set [6], 30.4 µM; in data set [7], 34.6 µM. Also, the viability at 48 h, 10 μM in data set [8] amounted to 94%.
